Legend:
Type in all cases: cell-based
Conditions in all cases: 4 weeks; for % inhibition: at the total conc given; for Total conc, ppm: minimum inhibitory concentration in paint
[1] = system: Gloeocapsa sp. and Oscillatoria sp. (Gs + Os); assay: Algal efficacy testing, modified ASTM 5589, paint film
Protocol: (§1) A single or blend of biocides was post added into white acrylic latex paint free of biocides to give a maximum total active ingredient/s concentration tested. This paint was then diluted with a biocide free acrylic latex paint to give targeted concentrations for the testing. Depending on the type of biocide blends tested, the total biocides concentrations varies from 200 to 5000 ppm. After biocides addition or dilution, each sample was hand mixed for at least a minute until uniformity is achieved. Each of the paint samples as well as a control sample (containing no biocide) were used to prepare films on black plastic-vinyl chloride/acetate copolymer panels (LENETA, Mahwah, N.J.) using a 3 mil (0.0762 mm) bird bar applicator. The panels were thoroughly dried for at least 2 days avoiding direct exposure to sunlight. Square discs (0.5 inch; 1.27 cm^2) were cut out from each panel and were used as the substrate for fungal and algal efficacy tests. This sample size allowed for an agar border when the sample disc was placed into the well of the test plate. Each sample was tested in duplicate
(§2) The appropriate media (BOLD'S 3N for Chlorophytes, BG-11 for Cyanobacteria, and PDA for fungi) were used to support microbial growth. The test plates were maintained at room temp (25° C.-26° C.), in a cycled light-dark environment, for four weeks for algae. Plates for fungal challenge tests were maintained at 30 C for four weeks. At the end of the incubation period the samples were scored for percent area covered by visible microbial growth.
(§3) Algal Efficacy Testing—Modified ASTM 5589
(§4) ASTM 5589 is a standard accelerated test method for determining resistance of various coatings (including paints) to algal defacement. To accommodate for high-throughput screening, this method was scaled down from petri plates to 6-well plates. A single coupon was placed with a pair of sterile forceps at the center of the agar plug (on top) with the painted surface facing upwards. Algal inoculums were prepared by mixing equal concentrations (1×10^6 cfu/ml) and equal volumes (depending on number of samples to be inoculated) of like growing organisms.
(§5) In Flumetsulam+various IT synergy study, three pool of mixed algae were prepared as the test inoculum, Gloeocapsa sp. and Oscillatoria sp. a mix of cyanobacteria grown on BG-11 media; Chlorella sp., Chlorella kessleri, and Nostoc commune are unicellular chlorphytes that were mixed and grown on Bold media; Trentepohlia aurea, Tretepohlia odorata, and Calotrix parientina are filamentous algae that were mixed and grown on Bold media.
(§6) In Diclosulam+various IT synergy study, only two pools of mixed algae were prepared; Gloeocapsa sp. and Oscillatoria sp. grown on BG-11 media and Chlorella sp., Chlorella kessleri, Nostoc commune, Trentepohlia aurea, Tretepohlia odorata, and Calotrix parientina grown on Bold media
(§7) Each well that contains a tested coupon was inoculated with 400 μl of organism mixture (1×10^6 cfu/ml) making sure that the whole surface (paint film as well as the agar surrounding it) was evenly covered. The plates were incubated at room temp (25° C.-26° C.) with cyclic exposure to light (OTT-Lite model #OTL4012P, 40 Watt, 26 KLumen) and dark phases, for a period of four weeks. The total area covered was evaluated at the end of each week according to percent area covered in 5% increments.
(§8) Synergy Index Calculation
(§9) The SI is calculated based on F. C. Kull et.
(§10) Qa=the concentration of Biocide A in the blend
(§11) QA=The concentration of Biocide A as the only biocide
(§12) Qb=The concentration of Biocide B in the blend
(§13) QB=The concentration of Biocide B as the only biocide
(§14) SI value of <1 in the formula indicates a synergism of the blended biocides exists.
(§15) NE=no end point at the concentration tested that will meet the percent inhibition criteria set in each SI calculation

[2] = system: Aa + Tv + An + Pf + Ap + Ch; assay: Fungal efficacy testing, modified ASTM 5590, paint film, single pool of all fungi
Protocol: as §1, §2
(§16) Fungal Efficacy Testing—Modified ASTM 5590
(§17) ASTM 5590 is a standard accelerated test method for determining resistance of various coatings (including paints) to fungal defacement. To accommodate for high-throughput screening, this method was scaled down from petri plates to 6-well plates. To set up the test, an agar plug was placed at the bottom of each well of the sterile 6-well plate. A single coupon was placed with a pair of sterile forceps at the center of the agar plug (on top) with the painted surface facing upwards. Fungal inoculums were prepared by mixing equal concentrations (1×10^6 cfu/ml) and equal volumes (depending on number of samples to be tested) of like growing organisms. For Flumetsulam+various IT synergy study, three pools of mixed fungi were prepared as the test inoculum. Cladosporium herbarum was mixed with Aureobasidium pullulans; Aspergillus niger was mixed with Penicillium funiculosum and Alternaria alternata was mixed with Trichoderma viride. For Diclosulam+various IT synergy study, all above fungi were mixed as a single pool. Each well was inoculated with 400 μl of organism mixture (1×10^6 cfu/ml) making sure that the whole surface (paint film as well as the agar surrounding it) was evenly covered. The plates were incubated at 30° C. in presence of moisture, for a period of four weeks. The total percent area covered was evaluated and recorded at the end of each week after the 2nd week and recorded in increments of 5%.
as §8, §9, §10, §11, §12, §13, §14, §15

[3] = system: Cp + To + Ta + Cs + Ck + Nc; assay: Algal efficacy testing, modified ASTM 5589, paint film, pool grown on Bold media
Protocol: as §1, §2, §3, §4, §6, §7, §8, §9, §10, §11, §12, §13, §14, §15

[4] = system: Alternaria alternata mixed with Trichoderma viride (AaTv); assay: Fungal efficacy testing, modified ASTM 5590, paint film
Protocol: as §1, §2, §16, §17, §8, §9, §10, §11, §12, §13, §14, §15

[5] = system: Aspergillus niger mixed with Penicillium funiculosum (AnPf); assay: as above
Protocol: as §1, §2, §16, §17, §8, §9, §10, §11, §12, §13, §14, §15

[6] = system: Cladosporium herbarum mixed with Aureobasidium pullulans (ApCh); assay: as above
Protocol: as §1, §2, §16, §17, §8, §9, §10, §11, §12, §13, §14, §15

[7] = system: Chlorella sp., Chlorella kessleri, and Nostoc commune (Cs + Ck + Nc); assay: Algal efficacy testing, modified ASTM 5589, paint film
Protocol: as §1, §2, §3, §4, §5, §7, §8, §9, §10, §11, §12, §13, §14, §15

[8] = system: Trentepohlia aurea, Tretepohlia odorata, and Calotrix parientina (Cp + To + Ta); assay: as above
Protocol: as §1, §2, §3, §4, §5, §7, §8, §9, §10, §11, §12, §13, §14, §15

[9] = Synergy study of Diclosulam and DCOIT
[10] = Synergy study of Diclosulam+OIT
[11] = Flumetsulam:BBIT synergy study, NE=no end point
[12] = Flumetsulam:DCOIT synergy study

CCOc1nc(F)cc2nc(S(=O)(=O)Nc3c(Cl)cccc3Cl)nn12 [Diclosulam, N-(2,6-dichlorophenyl)-5-ethoxy-7-fluoro[1,2,4]triazolo[1,5-c]pyrimidine-2-sulfonamide]
% inhibition [1, 9]: 100% | Total conc, ppm [1, 9]: 437.5 ppm | % inhibition [1, 10]: 100% | Total conc, ppm [1, 10]: 437.5 ppm | % inhibition [2, 9]: 40% | Total conc, ppm [2, 9]: 3500 ppm | % inhibition [2, 10]: 0% | Total conc, ppm [2, 10]: 3500 ppm | % inhibition [3, 9]: 100% | Total conc, ppm [3, 9]: 437.5 ppm | % inhibition [3, 10]: 100% | Total conc, ppm [3, 10]: 437.5 ppm

CCCCn1sc2ccccc2c1=O [BBIT, N-n-butyl-1,2-benzisothiazolin-3-one]
% inhibition ([4]; Flumetsulam:BBIT synergy study): 0% | Total conc, ppm [4, 11]: 1150 ppm | % inhibition ([5]; Flumetsulam:BBIT synergy study): 0% | Total conc, ppm ([5]; Flumetsulam:BBIT synergy study): 1150 ppm | % inhibition ([6]; Flumetsulam:BBIT synergy study): 80% | Total conc, ppm [6, 11]: 575 ppm | % inhibition ([7]; Flumetsulam:BBIT synergy study): 0% | Total conc, ppm ([7]; Flumetsulam:BBIT synergy study): 1150 ppm | % inhibition ([8]; Flumetsulam:BBIT synergy study): 0% | Total conc, ppm [8, 11]: 1150 ppm | % inhibition ([1]; Flumetsulam:BBIT synergy study): 0% | Total conc, ppm ([1]; Flumetsulam:BBIT synergy study): 1150 ppm

CCCCCCCCn1sc(Cl)c(Cl)c1=O [DCOIT, 4,5-dichloro-2-n-octyl-4-isothiazolin-3-one]
% inhibition [4, 12]: 85% | Total conc, ppm [4, 12]: 575 ppm | % inhibition [5, 12]: 100% | Total conc, ppm [5, 12]: 575 ppm | % inhibition [6, 12]: 100% | Total conc, ppm [6, 12]: 862.5 ppm | % inhibition [7, 12]: 100% | Total conc, ppm [7, 12]: 1150 ppm | % inhibition [8, 12]: 100% | Total conc, ppm [8, 12]: 143.75 ppm | % inhibition [1, 12]: 100% | Total conc, ppm [1, 12]: 143.75 ppm | % inhibition [1, 9]: 100% | Total conc, ppm [1, 9]: 625 ppm | % inhibition [2, 9]: 80% | Total conc, ppm [2, 9]: 625 ppm | % inhibition [3, 9]: 100% | Total conc, ppm [3, 9]: 625 ppm

CCCCCCCCn1sccc1=O [OIT, 2-n-octyl-4-isothiazolin-3-one]
% inhibition ([4]; Flumetsulam:OIT synergy study): 100% | Total conc, ppm ([4]; Flumetsulam:OIT synergy study): 900 ppm | % inhibition ([5]; Flumetsulam:OIT synergy study): 100% | Total conc, ppm ([5]; Flumetsulam:OIT synergy study): 450 ppm | % inhibition ([6]; Flumetsulam:OIT synergy study): 80% | Total conc, ppm ([6]; Flumetsulam:OIT synergy study): 900 ppm | % inhibition ([7]; Flumetsulam:OIT synergy study): 100% | Total conc, ppm ([7]; Flumetsulam:OIT synergy study): 450 ppm | % inhibition ([8]; Flumetsulam:OIT synergy study): 100% | Total conc, ppm ([8]; Flumetsulam:OIT synergy study): 450 ppm | % inhibition ([1]; Flumetsulam:OIT synergy study): 100% | Total conc, ppm ([1]; Flumetsulam:OIT synergy study): 450 ppm | % inhibition [1, 10]: 100% | Total conc, ppm [1, 10]: 900 ppm | % inhibition [2, 10]: 100% | Total conc, ppm [2, 10]: 450 ppm | % inhibition [3, 10]: 100% | Total conc, ppm [3, 10]: 900 ppm

Cc1ccn2nc(S(=O)(=O)Nc3c(F)cccc3F)nc2n1 [Flumetsulam, N-(2,6-difluorophenyl)-5-methyl[1,2,4]triazolo[1,5-a]pyrimidine-2-sulfonamide]
% inhibition ([4]; Flumetsulam:BBIT synergy study): 0% | Total conc, ppm [4, 11]: 3500 ppm | % inhibition [4, 12]: 0% | Total conc, ppm [4, 12]: 3500 ppm | % inhibition ([4]; Flumetsulam:OIT synergy study): 0% | Total conc, ppm ([4]; Flumetsulam:OIT synergy study): 3500 ppm | % inhibition ([5]; Flumetsulam:BBIT synergy study): 0% | Total conc, ppm ([5]; Flumetsulam:BBIT synergy study): 3500 ppm | % inhibition [5, 12]: 0% | Total conc, ppm [5, 12]: 3500 ppm | % inhibition ([5]; Flumetsulam:OIT synergy study): 65% | Total conc, ppm ([5]; Flumetsulam:OIT synergy study): 3500 ppm | % inhibition ([6]; Flumetsulam:BBIT synergy study): 0% | Total conc, ppm [6, 11]: 3500 ppm | % inhibition [6, 12]: 90% | Total conc, ppm [6, 12]: 3500 ppm | % inhibition ([6]; Flumetsulam:OIT synergy study): 0% | Total conc, ppm ([6]; Flumetsulam:OIT synergy study): 3500 ppm | % inhibition ([7]; Flumetsulam:BBIT synergy study): 0% | Total conc, ppm ([7]; Flumetsulam:BBIT synergy study): 3500 ppm | % inhibition [7, 12]: 100% | Total conc, ppm [7, 12]: 1750 ppm | % inhibition ([7]; Flumetsulam:OIT synergy study): 65% | Total conc, ppm ([7]; Flumetsulam:OIT synergy study): 2625 ppm | % inhibition ([8]; Flumetsulam:BBIT synergy study): 0% | Total conc, ppm [8, 11]: 3500 ppm | % inhibition [8, 12]: 95% | Total conc, ppm [8, 12]: 437.5 ppm | % inhibition ([8]; Flumetsulam:OIT synergy study): 60% | Total conc, ppm ([8]; Flumetsulam:OIT synergy study): 437.5 ppm | % inhibition ([1]; Flumetsulam:BBIT synergy study): 0% | Total conc, ppm ([1]; Flumetsulam:BBIT synergy study): 3500 ppm | % inhibition [1, 12]: 100% | Total conc, ppm [1, 12]: 2625 ppm | % inhibition ([1]; Flumetsulam:OIT synergy study): 90% | Total conc, ppm ([1]; Flumetsulam:OIT synergy study): 437.5 ppm
